Columns and labels:
Type in all cases: cell-based, human
γ-secretase = γ-secretase activity blocked in DM1 myoblasts, NOTCH1 level; settings: pharmacological inhibition of γ-secretase
DM1 myoblasts = assay: Myogenic differentiation of treated DM1 myoblasts in differentiation media (myotubes, myogenin, MyoD)
From the text: The above findings supported the possibility that a significant amount of SKELETROPHIN remained bound with the mutant DMPK transcripts within DM1 nuclei, which results in diminished SKELETROPHIN activity in DM1. The attenuated SKELETROPHIN activity then manifests with an increase in JAGGED2 activity, leading to chronic activation of Notch signaling in DM1. Based on these findings we hypothesize that the activated Notch attenuates the ability of DM1 myoblasts to progress toward myogenic lineage, while facilitating their proliferation. To more critically test this idea, DMPK transcripts were targeted in DM1 myoblasts using siRNA and JAGGED2 and NOTCH1 expression was measured, in addition to an assessment of the cells' myogenic properties. DMPK transcripts were targeted to minimize interactions of SKELETROPHIN with CUG RNA, thereby increasing SKELETROPHIN activity. […] JAGGED2 and NOTCH1 levels were measured in the DMPK-siRNA-treated cells. […] In contrast, DM1 myoblasts treated with control siRNA formed fewer and shorter myotubes as well as basal myogenin expression under identical conditions.
Whether attenuating Notch signaling improves the myogenic potential of DM1 myoblasts was assessed. To achieve this goal, JAGGED2 was targeted in DM1 myoblasts with siRNA.
(§1) The above results support the idea that diminished SKELETROPHIN activity results in elevated Notch signaling and activated Notch impairs the efficacy of myoblast differentiation in DM1. To obtain more direct evidence for this interpretation, SKELETROPHIN was overexpressed in DM1 myoblasts and the Notch activity and their myogenic properties were assessed.
The progression of myogenesis was quantified by monitoring the expression of myogenic markers, myogenin and MyoD. […] In contrast, untreated DM1 myoblasts show reduced myogenin and MyoD even after prolonged incubation in differentiation media.

Notch signaling = assay: SKELETROPHIN overexpression in DM1 myoblasts, Notch activity
Method: as §1

Q: For CC(C)C[C@H](NC(=O)[C@H](Cc1ccccc1)C[C@@H](O)[C@H](Cc1ccccc1)NC(=O)OC(C)(C)C)C(=O)N[C@@H](Cc1ccccc1)C(N)=O [L-685458], which NOTCH1 level (γ-secretase) is on record?
A: dose-dependent reduction

Q: And the MyoD expression (DM1 myoblasts)?
A: increase

Q: And the “formation of multinucleated myotubes” value (DM1 myoblasts)?
A: higher propensity to form multi-nucleated myotubes

Q: And the myogenin expression (DM1 myoblasts)?
A: increase

B1: SKELETROPHIN: E3 ubiquitin ligase for Jagged2, overexpressed in DM1 myoblasts (protein, listed as Homo sapiens)
chain: MRWKCRVCLDYDLCTQCYMHNKHELAHAFDRYETAHSRPVTLSPRQGLPRIPLRGIFQGAKVVRGPDWEWGSQDGGEGKPGRVVDIRGWDVETGRSVASVTWADGTTNVYRVGHKGKVDLKCVGEAAGGFYYKDHLPRLGKPAELQRRVSADSQPFQHGDKVKCLLDTDVLREMQEGHGGWNPRMAEFIGQTGTVHRITDRGDVRVQFNHETRWTFHPGALTKALGRVGKVVKVFGDGNLRVAVAGQRWTFSPSCLVAYRPEEDANLDVAERARENKSSLSVALDKLRAQKSDPEHPGRLVVEVALGNAARALDLLRRRPEQVDTKNQGRTALQVAAYLGQVELIRLLLQARAGVDLPDDEGNTALHYAALGNQPEATRVLLSAGCRADAINSTQSTALHVAVQRGFLEVVRALCERGCDVNLPDAHSDTPLHSAISAGTGASGIVEVLTEVPNIDVTATNSQGFTLLHHASLKGHALAVRKILARARQLVDAKKEDGFTALHLAALNNHREVAQILIREGRCDVNVRNRKLQSPLHLAVQQAHVGLVPLLVDAGCSVNAEDEEGDTALHVALQRHQLLPLVADGAGGDPGPLQLLSRLQASGLPGSAELTVGAAVACFLALEGADVSYTNHRGRSPLDLAAEGRVLKALQGCAQRFRERQAGGGAAPGPRQTLGTPNTVTNLHVGAAPGPEAAECLVCSELALLVLFSPCQHRTVCEECARRMKKCIRCQVVVSKKLRPDGSEVASAAPAPGPPRQLVEELQSRYRQMEERITCPICIDSHIRLVFQCGHGACAPCGSALSACPICRQPIRDRIQIFV
Q: What does the source list for B1?
A: formation of multinucleated myotubes (DM1 myoblasts): a large number of these myoblasts differentiated; myogenin expression (DM1 myoblasts): pronounced myogenin expressions; NOTCH1 level (Notch signaling): significant reduction; Notch signaling (Notch signaling; n=4, P=0.0031): significant reduction

Source: patent US8771965B2, “Methods and compositions involving nucleotide repeat disorders” (The Board of Regents of the University of Texas System, priority 2006, dated 2014)
